These results are taken from patent publication US20090291942A1, “IMIDAZO PYRIDINE DERIVATIVES” (priority 2008, published 2009).

Experiment [1] deals with VEGF-induced angiogenesis. The experiment in a line: GPR4 activity in VEGF-induced angiogenesis (angiogenesis growth factor implant model). Particulars: mice, 10 mg/kg (qd) po, chamber tissue weighed on 4th day after implantation. Type of experiment: in vivo.
Procedure: The functional activity of GPR4 was determined in the angiogenesis growth factor implant model. Porous tissue chambers made of perfluoro-alkoxy-Teflon were filled with 0.8% agar and 20 U/ml heparin supplemented with or without 8 μg/ml recombinant human VEGF. The solutions were maintained at 39° C. prior to the filling procedure. Mice were anesthetized using 3% isoflurane inhalation. For subcutaneous implantation, a small skin incision was made at the base of the tail to allow the insertion of an implant trocar. The chamber was implanted under aseptic conditions through the small incision onto the back of the animal. The skin incision was closed by wound clips. On the 4th day after implantation, animals were sacrificed using CO2. Chambers were excised and the vascularized fibrous tissue formed around each implant carefully removed and weighed. Body weight was used to monitor the general condition of the mice. The compounds were applied po at the day of the chamber implantation.
Experiment [2] has as its system mouse antigen-induced arthritis. The experiment in a line: Mouse antigen-induced arthritis model. The experiment is classed as in vivo. Particulars: female OFA-1 mice, 50 mg/kg (bid) po from day 0 for 7 days, R/L knee swelling ratio AUC vs control. The protocol:
c) GPR4 Activity in Mouse Antigen-Induced Arthritis Model
Female OFA-1 mice were sensitized i.d. on the back at two sites to methylated bovine serum albumin (mBSA) homogenize 1:1 with complete Freund's adjuvant on days—21 and —14 (0.1 ml containing 1 mg/ml mBSA). On day 0, the right knee receives 10 μl of 10 mg/ml mBSA in 5% glucose solution (antigen-injected knee), while the left knee receives 10 μl of 5% glucose solution alone (vehicle-injected knee). The diameters of the left and right knees were then measured using callipers immediately after the intra-articular injections and again on days 2, 4, 7, 9, 11 and 14. Vehicle and compounds were applied po starting at day 0 for 7 days. Right knee swelling was evaluated relative to left knee swelling, and the R/L knee swelling ratio plotted against time to give area under the curve (AUC) graphs for control and treatment groups. The percentage inhibition of the individual treatment group AUCs were calculated vs the control group AUC (0% inhibition) using an excel spreadsheet. On day 7, the mice were killed by CO2 inhalation and the right and left knees removed and processed for histological analysis.

Another experiment addresses T1, human GPR4 (Homo sapiens, UniProt P46093).
T1 construct: expressed in transfected cells
The experiment can be described thus: Cell-based assay for human GPR4 activity (pH-induced cAMP formation, HTRF). Particulars: HeLa cells stably expressing human GPR4, pH-induced cAMP formation. In a few lines: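 HeLa cells stably expressing human GPR4, pre-incubated 15 min at room temperature with compound in pH 8 buffer containing 2 mM IBMX. Buffer B added to set the final stimulation pH, then a further 15 min at room temperature; cAMP read by HTRF.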
In general terms: Changes in cAMP serve as a functional read-out for many G protein-coupled receptors.

Counter-ions that a name gives are not always drawn.

T1 sequence (P46093 whole entry): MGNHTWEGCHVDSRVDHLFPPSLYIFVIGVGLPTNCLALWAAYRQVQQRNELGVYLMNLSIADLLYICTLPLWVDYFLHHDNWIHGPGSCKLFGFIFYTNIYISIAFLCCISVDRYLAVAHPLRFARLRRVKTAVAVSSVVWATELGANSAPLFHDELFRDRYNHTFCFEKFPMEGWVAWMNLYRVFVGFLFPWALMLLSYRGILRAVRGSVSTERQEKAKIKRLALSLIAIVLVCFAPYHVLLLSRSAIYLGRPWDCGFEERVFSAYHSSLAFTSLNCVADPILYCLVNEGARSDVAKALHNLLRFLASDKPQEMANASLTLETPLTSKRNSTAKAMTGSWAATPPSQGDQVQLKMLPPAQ

Broadly, the IC50 is the midpoint of a concentration-inhibition curve. Read a high IC50 as weaker potency. On to `CCc1nc2c(C)cc(C)nc2n1Cc1ccc(/C=C/CN2CCC(N3CCCCC3)CC2)cc1` [Example 33, 1′-{(E)-3-[4-(2-Ethyl-5,7-dimethyl-imidazo[4,5-b]pyridin-3-ylmethyl)-phenyl]-allyl}-[1,4′]bipiperidinyl dihydrochloride], for which the Δ tissue weight in experiment [1] was found to be 45%. Moreover, the Δ swelling ratio in experiment [2] is on record as 59%. The same compound gave an IC50 against human GPR4 of 71 nM. Take `CCc1nc2c(C)cc(C)nc2n1Cc1ccc(/C=C/CCN2CCC(N3CCN(C)CC3)CC2)cc1` [Example 107, 2-Ethyl-5,7-dimethyl-3-{4-[(E)-4-[4-(4-methyl-piperazin-1-yl)-piperidin-1-yl]-but-1-enyl]-benzyl}-3H-imidazo[4,5-b]pyridine]: the midpoint of inhibition at human GPR4, the IC50, lay at 191 nM. Compound `CCc1nc2c(C)cc(C)nc2n1Cc1ccc(/C=C/CCN2CCC(N3CCOCC3)CC2)cc1` [Example 108, 2-Ethyl-5,7-dimethyl-3-{4-[(E)-4-(4-morpholin-4-yl-piperidin-1-yl)-but-1-enyl]-benzyl}-3H-imidazo[4,5-b]pyridine dihydrochloride] returned a 50% inhibitory concentration (IC50) at human GPR4 of 447 nM. Compound `CCc1nc2c(C)cc(C)nc2n1Cc1ccc(/C=C/CCn2ccnc2)cc1` [Example 109] showed an IC50 against human GPR4 of 370 nM. The compound `CCc1nc2c(C)cc(C)nc2n1Cc1ccc(CCCCN2CCN(C(C)(C)C)CC2)cc1` [Example 110, 3-{4-[4-(4-tert-Butyl-piperazin-1-yl)-butyl]-benzyl}-2-ethyl-5,7-dimethyl-3H-imidazo[4,5-b]pyridine dihydrochloride] showed a half-inhibitory concentration (IC50) against human GPR4 of 98 nM. At human GPR4, `CCc1nc2c(C)cc(C)nc2n1Cc1ccc(CCCCN2CCN(C(C)C)CC2)cc1` [Example 111, 2-Ethyl-3-{4-[4-(4-isopropyl-piperazin-1-yl)-butyl]-benzyl}-5,7-dimethyl-3H-imidazo[4,5-b]pyridine dihydrochloride] displayed an IC50 of 412 nM.

`CCc1nc2c(C)cc(C)nc2n1Cc1ccc(CCCCN2CCC(N3CCCCC3)CC2)cc1` [Example 112, 1′-{4-[4-(2-Ethyl-5,7-dimethyl-imidazo[4,5-b]pyridin-3-ylmethyl)-phenyl]-butyl}-[1,4′]bipiperidine]: half-maximal inhibition against human GPR4 (IC50) was put at 59 nM.
